According to US11787825B2 (priority 2021, dated 2023):
Converted amounts (≈) assume the structure as drawn. Where two headings read alike, the source gives them in different places.

How the values were obtained:
[1] = physchem; settings: 25 °C, thermodynamic from solid
[2] = 0.1N HCL, 1.0% DMSO, 24-hour incubation at ambient temperature, maximum theoretical compound concentration 100 μM
[3] = 1×PBS buffer (pH 7.4), 1.0% DMSO, 24-hour incubation at ambient temperature, maximum theoretical compound concentration 100 μM

| pH 2 solubility [2] | pH 7 solubility [3] | SMILES | also measured |
| --- | --- | --- | --- |
|  |  | CC(C)(C#Cc1ccc(-c2ccc(Cl)c3c(N(C(=O)/C=C/C(=O)N[C@@H](CC(=O)O)C(=O)O)S(C)(=O)=O)nn(CC(F)(F)F)c23)c([C@H](Cc2cc(F)cc(F)c2)NC(=O)Cn2nc(C(F)(F)F)c3c2C(F)(F)[C@@H]2C[C@H]32)n1)S(C)(=O)=O [Compound 2, ((E)-4-(N-(4-chloro-7-(2-((S)-1-(2-((3bS,4aR)-5,5-difluoro-3-(trifluoromethyl)-3b,4,4a,5-tetrahydro-1H-cyclopropa[3,4]cyclopenta[1,2-c]pyrazolyl)acetamido)-2-(3,5-difluorophenyl)ethyl)-6-(3-methyl-3-(methylsulfonyl)but-1-ynyl)pyridin-3-yl)-1-(2,2,2-trifluoroethyl)-1H-indazol-3-yl)methylsulfonamido)-4-oxobutenoyl)-L-aspartic acid] | pH 7 solubility: 1/95 μM; pH 2 solubility (pH 2): 1/95 μM; solubility ([1]; fasted state simulated intestinal fluid (FaSSIF), fassif): 810 µg/mL (≈ 686 µM); solubility ([1]; fed state simulated intestinal fluid (FeSSIF), fessif): 655 µg/mL (≈ 554 µM) |
| 1/1 μM | 1/1 μM | C[C@H](CC(=O)O)C(=O)N(c1nn(CC(F)(F)F)c2c(-c3ccc(C#CC(C)(C)S(C)(=O)=O)nc3[C@H](Cc3cc(F)cc(F)c3)NC(=O)Cn3nc(C(F)(F)F)c4c3C(F)(F)[C@@H]3C[C@H]43)ccc(Cl)c12)S(C)(=O)=O [Compound 26, (R)-4-(N-(4-chloro-7-(2-((S)-1-(2-((3bS,4aR)-5,5-difluoro-3-(trifluoromethyl)-3b,4,4a,5-tetrahydro-1H-cyclopropa[3,4]cyclopenta[1,2-c]pyrazol-1-yl)acetamido)-2-(3,5-difluorophenyl)ethyl)-6-(3-methyl-3-(methylsulfonyl)but-1-yn-1-yl)pyridin-3-yl)-1-(2,2,2-trifluoroethyl)-1H-indazol-3-yl)methylsulfonamido)-3-methyl-4-oxobutanoic acid] |  |
| 37 μM | 6 μM | CNCC(=O)N(c1nn(CC(F)(F)F)c2c(-c3ccc(C#CC(C)(C)S(C)(=O)=O)nc3[C@H](Cc3cc(F)cc(F)c3)NC(=O)Cn3nc(C(F)(F)F)c4c3C(F)(F)[C@@H]3C[C@H]43)ccc(Cl)c12)S(C)(=O)=O [Compound 19, (N-(4-chloro-7-(2-((S)-1-(2-((3bS,4aR)-5,5-difluoro (trifluoromethyl)-3b,4,4a,5-tetrahydro-1H-cyclopropa[3,4]cyclopenta[1,2-c]pyrazolyl)acetamido)-2-(3,5-difluorophenyl)ethyl)-6-(3-methyl-3-(methylsulfonyl)but-1-ynyl)pyridin-3-yl)-1-(2,2,2-trifluoroethyl)-1H-indazol-3-yl)-2-(methylamino)-N-(methylsulfonyl)acetamide)] |  |
| 65 μM | 8 μM | CC(C)(C#Cc1ccc(-c2ccc(Cl)c3c(N(C(=O)CN)S(C)(=O)=O)nn(CC(F)(F)F)c23)c([C@H](Cc2cc(F)cc(F)c2)NC(=O)Cn2nc(C(F)(F)F)c3c2C(F)(F)[C@@H]2C[C@H]32)n1)S(C)(=O)=O [Compound 12, 2-amino-N-(4-chloro-7-(2-((S)-1-(2-((3bS,4aR)-5,5-difluoro (trifluoromethyl)-3b,4,4a,5-tetrahydro-1H-cyclopropa[3,4]cyclopenta[1,2-c]pyrazolyl)acetamido)-2-(3,5-difluorophenyl)ethyl)-6-(3-methyl-3-(methylsulfonyl)but-1-ynyl)pyridin-3-yl)-1-(2,2,2-trifluoroethyl)-1H-indazol-3-yl)-N-(methylsulfonyl)acetamide] |  |
| 100 μM | 43 μM | CC(C)(C#Cc1ccc(-c2ccc(Cl)c3c(N(C(=O)[C@@H](N)CCCCN)S(C)(=O)=O)nn(CC(F)(F)F)c23)c([C@H](Cc2cc(F)cc(F)c2)NC(=O)Cn2nc(C(F)(F)F)c3c2C(F)(F)[C@@H]2C[C@H]32)n1)S(C)(=O)=O [Compound 11, (S)-2,6-diamino-N-(4-chloro-7-(2-((S)-1-(2-((3bS,4aR)-5,5-difluoro-3-(trifluoromethyl)-3b,4,4a,5-tetrahydro-1H-cyclopropa[3,4]cyclopenta[1,2-c]pyrazol-1-yl)acetamido)-2-(3,5-difluorophenyl)ethyl)-6-(3-methyl-3-(methylsulfonyl)but-1-yn-1-yl)pyridin-3-yl)-1-(2,2,2-trifluoroethyl)-1H-indazol-3-yl)-N-(methylsulfonyl)hexanamide] |  |
| 1/1 μM | 1/1 μM | CC(C)(C#Cc1ccc(-c2ccc(Cl)c3c(N(C(=O)CCCC(=O)O)S(C)(=O)=O)nn(CC(F)(F)F)c23)c([C@H](Cc2cc(F)cc(F)c2)NC(=O)Cn2nc(C(F)(F)F)c3c2C(F)(F)[C@@H]2C[C@H]32)n1)S(C)(=O)=O [Compound 25, 5-(N-(4-chloro-7-(2-((S)-1-(2-((3bS,4aR)-5,5-difluoro-3-(trifluoromethyl)-3b,4,4a,5-tetrahydro-1H-cyclopropa[3,4]cyclopenta[1,2-c]pyrazol-1-yl)acetamido)-2-(3,5-difluorophenyl)ethyl)-6-(3-methyl-3-(methylsulfonyl)but-1-yn-1-yl)pyridin-3-yl)-1-(2,2,2-trifluoroethyl)-1H-indazol-3-yl)methylsulfonamido)-5-oxopentanoic acid] |  |
| 1/1 μM | 1/1 μM | COCCOCCOCCOCCOCC(=O)N(c1nn(CC(F)(F)F)c2c(-c3ccc(C#CC(C)(C)S(C)(=O)=O)nc3[C@H](Cc3cc(F)cc(F)c3)NC(=O)Cn3nc(C(F)(F)F)c4c3C(F)(F)[C@@H]3C[C@H]43)ccc(Cl)c12)S(C)(=O)=O [Compound 9, N-(4-chloro-7-(2-((S)-1-(2-((3bS,4aR)-5,5-difluoro-3-(trifluoromethyl)-3b,4,4a,5-tetrahydro-1H-cyclopropa[3,4]cyclopenta[1,2-c]pyrazol-1-yl)acetamido)-2-(3,5-difluorophenyl)ethyl)-6-(3-methyl-3-(methylsulfonyl)but-1-ynyl)pyridin-3-yl)-1-(2,2,2-trifluoroethyl)-1H-indazol-3-yl)-N-(methylsulfonyl)-2,5,8,11,14-pentaoxahexadecan-16-amide] |  |
|  |  | Cc1cc(CC(=O)NCC(=O)O)c(C(C)(C)CC(=O)N(c2nn(CC(F)(F)F)c3c(-c4ccc(C#CC(C)(C)S(C)(=O)=O)nc4[C@H](Cc4cc(F)cc(F)c4)NC(=O)Cn4nc(C(F)(F)F)c5c4C(F)(F)[C@@H]4C[C@H]54)ccc(Cl)c23)S(C)(=O)=O)c(OP(=O)(O)O)c1 [Compound 63, (2-(2-(4-(N-(4-chloro-7-(2-((S)-1-(2-((3bS,4aR)-5,5-difluoro-3-(trifluoromethyl)-3b,4,4a,5-tetrahydro-1H-cyclopropa[3,4]cyclopenta[1,2-c]pyrazol-1-yl)acetamido)-2-(3,5-difluorophenyl)ethyl)-6-(3-methyl-3-(methylsulfonyl)but-1-yn-1-yl)pyridin-3-yl)-1-(2,2,2-trifluoroethyl)-1H-indazol-3-yl)methylsulfonamido)-2-methyl-4-oxobutan-2-yl)-5-methyl-3-(phosphonooxy)phenyl)acetyl)glycine] | pH 2 solubility (pH 2): 1/85 μM; pH 7 solubility (pH 7.4): 1/85 μM |
|  |  | CC(C)(CC(=O)N(c1nn(CC(F)(F)F)c2c(-c3ccc(C#CC(C)(C)S(C)(=O)=O)nc3[C@H](Cc3cc(F)cc(F)c3)NC(=O)Cn3nc(C(F)(F)F)c4c3C(F)(F)[C@@H]3C[C@H]43)ccc(Cl)c12)S(C)(=O)=O)c1c(CC(=O)O)cccc1OP(=O)(O)O [Compound 70, 2-(2-(4-(N-(4-chloro-7-(2-((S)-1-(2-((3bS,4aR)-5,5-difluoro (trifluoromethyl)-3b,4,4a,5-tetrahydro-1H-cyclopropa[3,4]cyclopenta[1,2-c]pyrazolyl)acetamido)-2-(3,5-difluorophenyl)ethyl)-6-(3-methyl-3-(methylsulfonyl)but-1-ynyl)pyridin-3-yl)-1-(2,2,2-trifluoroethyl)-1H-indazol-3-yl)methylsulfonamido)-2-methyloxobutan-2-yl)-3-(phosphonooxy)phenyl)acetic acid] | pH 2 solubility (pH 2): 7/94 μM; pH 7 solubility (pH 7.4): 7/94 μM |
| 45 μM | 6 μM | CC(C)(C#Cc1ccc(-c2ccc(Cl)c3c(N(C(=O)C[N+](C)(C)C)S(C)(=O)=O)nn(CC(F)(F)F)c23)c([C@H](Cc2cc(F)cc(F)c2)NC(=O)Cn2nc(C(F)(F)F)c3c2C(F)(F)[C@@H]2C[C@H]32)n1)S(C)(=O)=O [Compound 5, 2-(N-(4-chloro-7-(2-((S)-1-(2-((3bS,4aR)-5,5-difluoro (trifluoromethyl)-3b,4,4a,5-tetrahydro-1H-cyclopropa[3,4]cyclopenta[1,2-c]pyrazolyl)acetamido)-2-(3,5-difluorophenyl)ethyl)-6-(3-methyl-3-(methylsulfonyl)but-1-ynyl)pyridin-3-yl)-1-(2,2,2-trifluoroethyl)-1H-indazol-3-yl)methylsulfonamido)-N,N,N-trimethyl-2-oxoethan-1-aminium] |  |
| 72 μM | 2 μM | CN[C@H](C(=O)N(c1nn(CC(F)(F)F)c2c(-c3ccc(C#CC(C)(C)S(C)(=O)=O)nc3[C@H](Cc3cc(F)cc(F)c3)NC(=O)Cn3nc(C(F)(F)F)c4c3C(F)(F)[C@@H]3C[C@H]43)ccc(Cl)c12)S(C)(=O)=O)C(C)C [Compound 21, N-(4-chloro-7-(2-((S)-1-(2-((3bS,4aR)-5,5-difluoro-3-(trifluoromethyl)-3b,4,4a,5-tetrahydro-1H-cyclopropa[3,4]cyclopenta[1,2-c]pyrazol-1-yl)acetamido)-2-(3,5-difluorophenyl)ethyl)-6-(3-methyl-3-(methylsulfonyl)but-1-yn-1-yl)pyridin-3-yl)-1-(2,2,2-trifluoroethyl)-1H-indazol-3-yl)-3-methyl-2-(methylamino)-N-(methylsulfonyl)butanamide] |  |
